Where “and” joins values, the source holds several entries; their conditions need not be identical. Equal values may be shown once.
Legend:
[1] = molecular target: T1, tandem tudor domain of Sgf29, WT (Homo sapiens, UniProt Q96ES7); assay: ITC binding of histone peptides to WT Sgf29
T1 construct: 6xHis (cleaved yes); made in house; host or cells: E. coli Rosetta BL21 DE3 PlysS
T1 sequence (Q96ES7 115-293): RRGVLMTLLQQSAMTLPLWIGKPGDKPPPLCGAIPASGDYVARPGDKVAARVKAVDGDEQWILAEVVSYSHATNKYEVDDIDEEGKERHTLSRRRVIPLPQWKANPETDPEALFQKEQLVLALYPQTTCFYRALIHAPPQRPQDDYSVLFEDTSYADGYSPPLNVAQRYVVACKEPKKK

Sgf29 D266E = molecular target: T2, Sgf29 D266E (Homo sapiens, UniProt Q96ES7, D266E); assay: ITC binding of histone peptides to Sgf29 D266E
T2 construct: 6xHis (cleaved yes); made in house; host or cells: E. coli Rosetta BL21 DE3 PlysS
T2 sequence (Q96ES7 115-293 D266E): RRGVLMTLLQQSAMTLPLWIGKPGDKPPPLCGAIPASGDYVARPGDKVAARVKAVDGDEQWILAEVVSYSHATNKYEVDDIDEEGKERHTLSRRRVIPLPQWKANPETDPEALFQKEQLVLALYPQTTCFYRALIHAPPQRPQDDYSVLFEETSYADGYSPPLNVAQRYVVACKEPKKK

Sgf29 D266A = molecular target: T3, Sgf29 D266A (Homo sapiens, UniProt Q96ES7, D266A); assay: ITC binding of histone peptides to Sgf29 D266A
T3 construct: 6xHis (cleaved yes); made in house; host or cells: E. coli Rosetta BL21 DE3 PlysS
T3 sequence (Q96ES7 115-293 D266A): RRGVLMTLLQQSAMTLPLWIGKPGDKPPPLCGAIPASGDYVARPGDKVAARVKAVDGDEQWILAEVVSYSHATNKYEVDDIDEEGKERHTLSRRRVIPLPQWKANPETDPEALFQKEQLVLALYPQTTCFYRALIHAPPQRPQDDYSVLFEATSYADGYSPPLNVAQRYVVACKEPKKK

Sgf29 D266N = molecular target: T4, Sgf29 D266N (Homo sapiens, UniProt Q96ES7, D266N); assay: ITC binding of histone peptides to Sgf29 D266N
T4 construct: 6xHis (cleaved yes); made in house; host or cells: E. coli Rosetta BL21 DE3 PlysS
T4 sequence (Q96ES7 115-293 D266N): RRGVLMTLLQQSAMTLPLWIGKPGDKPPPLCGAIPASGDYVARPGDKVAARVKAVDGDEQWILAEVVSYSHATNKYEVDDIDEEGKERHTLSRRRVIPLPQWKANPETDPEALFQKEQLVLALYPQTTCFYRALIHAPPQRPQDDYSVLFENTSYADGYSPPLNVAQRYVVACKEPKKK

Sgf29 D266W = molecular target: T5, Sgf29 D266W (Homo sapiens, UniProt Q96ES7, D266W); assay: ITC binding of histone peptides to Sgf29 D266W
T5 construct: 6xHis (cleaved yes); made in house; host or cells: E. coli Rosetta BL21 DE3 PlysS
T5 sequence (Q96ES7 115-293 D266W): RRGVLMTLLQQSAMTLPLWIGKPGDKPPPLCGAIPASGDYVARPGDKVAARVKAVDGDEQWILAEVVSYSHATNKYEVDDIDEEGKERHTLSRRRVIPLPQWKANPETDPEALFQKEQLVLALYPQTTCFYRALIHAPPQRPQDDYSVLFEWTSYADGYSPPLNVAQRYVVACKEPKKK

Sgf29 D266Y = molecular target: T6, Sgf29 D266Y (Homo sapiens, UniProt Q96ES7, D266Y); assay: ITC binding of histone peptides to Sgf29 D266Y
T6 construct: 6xHis (cleaved yes); made in house; host or cells: E. coli Rosetta BL21 DE3 PlysS
T6 sequence (Q96ES7 115-293 D266Y): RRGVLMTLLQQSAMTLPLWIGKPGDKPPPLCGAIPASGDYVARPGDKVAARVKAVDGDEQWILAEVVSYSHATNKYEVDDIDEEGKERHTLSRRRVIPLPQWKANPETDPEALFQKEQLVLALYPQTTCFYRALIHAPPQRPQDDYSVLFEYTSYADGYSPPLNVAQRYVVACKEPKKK

Sgf29 D266F = molecular target: T7, Sgf29 D266F (Homo sapiens, UniProt Q96ES7, D266F); assay: ITC binding of histone peptides to Sgf29 D266F
T7 construct: 6xHis (cleaved yes); made in house; host or cells: E. coli Rosetta BL21 DE3 PlysS
T7 sequence (Q96ES7 115-293 D266F): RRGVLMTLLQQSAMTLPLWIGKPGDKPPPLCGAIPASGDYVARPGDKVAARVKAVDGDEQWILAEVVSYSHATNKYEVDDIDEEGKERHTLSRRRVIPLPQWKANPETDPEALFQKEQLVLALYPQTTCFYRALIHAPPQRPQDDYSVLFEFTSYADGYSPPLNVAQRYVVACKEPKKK

Sgf29 Y238F = molecular target: T8, Sgf29 Y238F (Homo sapiens, UniProt Q96ES7, Y238F); assay: ITC binding of histone peptides to Sgf29 Y238F
T8 construct: 6xHis (cleaved yes); made in house; host or cells: E. coli Rosetta BL21 DE3 PlysS
T8 sequence (Q96ES7 115-293 Y238F): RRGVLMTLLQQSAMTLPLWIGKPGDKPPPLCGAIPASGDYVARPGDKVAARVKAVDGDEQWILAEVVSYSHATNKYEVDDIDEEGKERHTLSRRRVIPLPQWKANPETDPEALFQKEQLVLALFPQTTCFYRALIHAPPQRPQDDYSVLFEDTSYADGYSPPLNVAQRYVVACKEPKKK

Sgf29 Y245F = molecular target: T9, Sgf29 Y245F (Homo sapiens, UniProt Q96ES7, Y245F); assay: ITC binding of histone peptides to Sgf29 Y245F
T9 construct: 6xHis (cleaved yes); made in house; host or cells: E. coli Rosetta BL21 DE3 PlysS
T9 sequence (Q96ES7 115-293 Y245F): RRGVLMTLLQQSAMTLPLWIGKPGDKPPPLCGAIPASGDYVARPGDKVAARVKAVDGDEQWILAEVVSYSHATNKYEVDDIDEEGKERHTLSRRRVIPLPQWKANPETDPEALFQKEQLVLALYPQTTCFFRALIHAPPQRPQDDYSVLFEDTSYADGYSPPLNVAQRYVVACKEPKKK

[2] = WT Sgf29, TRIS pH 8.0, ± SD (2–4 repeats)
[3] = D266E, TRIS pH 8.0, ± SD (2–4 repeats)
[4] = D266A, TRIS pH 8.0, ± SD (2–4 repeats)
[5] = D266N, TRIS pH 8.0, ± SD (2–4 repeats)
[6] = D266Y, TRIS pH 8.0, ± SD (2–4 repeats)
[7] = D266F, TRIS pH 8.0, ± SD (2–4 repeats)
[8] = Y238F, TRIS pH 8.0, ± SD (2–4 repeats)
[9] = Y245F, TRIS pH 8.0, ± SD (2–4 repeats)

C[C@H](N)C(=O)N[C@@H](CCCNC(=N)N)C(=O)N[C@H](C(=O)N[C@@H](CCCC[N+](C)(C)C)C(=O)N[C@@H](CCC(N)=O)C(=O)N[C@H](C(=O)N[C@@H](C)C(=O)N[C@@H](CCCNC(=N)N)C(=O)N[C@@H](CCCCN)C(=O)N[C@@H](CO)C(N)=O)[C@@H](C)O)[C@@H](C)O [H3K4me3]
-TΔS° less favorable relative to Sgf29-H3K4me2, by ([1]; H3K4me3 vs H3K4me2, WT Sgf29): 2.9 kJ/mol
ΔH° more favorable relative to Sgf29-H3K4me2, by ([1]; H3K4me3 vs H3K4me2, WT Sgf29): 3.8 kJ/mol
-TΔS° [1, 2]: 2.5 kJ/mol and 2.5 ± 0.84 kJ/mol
ΔG° [1, 2]: -31.4 ± 0.42 kJ/mol
ΔH° [1, 2]: -33.9 kJ/mol and -33.9 ± 0.84 kJ/mol
binding affinity (in words) (Sgf29 D266E; D266E relative to WT Sgf29): virtually indistinguishable binding affinities
-TΔS° (Sgf29 D266E; [3]): 6.69 ± 0.42 kJ/mol
ΔG° (Sgf29 D266E; [3]): -31 ± 0.42 kJ/mol
ΔH° (Sgf29 D266E; [3]): -37.7 ± 0.42 kJ/mol
more unfavorable ΔH° (difference) (Sgf29 D266A; D266A relative to WT Sgf29): 7.11 kJ/mol
reduction in binding affinity (Sgf29 D266A; D266A relative to WT Sgf29): 8 fold
-TΔS° (Sgf29 D266A; [4]): 0.42 ± 0.42 kJ/mol
ΔG° (Sgf29 D266A; [4]): -26.4 ± 0.42 kJ/mol
ΔH° (Sgf29 D266A; [4]): -26.8 ± 0.42 kJ/mol
decrease in binding affinity (Sgf29 D266N; D266N relative to WT Sgf29): 8 fold
increase in entropy / -TΔS° (Sgf29 D266N; D266N relative to WT Sgf29): 2.9 kJ/mol
-TΔS° (Sgf29 D266N; [5]): -0.42 ± 0.42 kJ/mol
ΔG° (Sgf29 D266N; [5]): -26.4 kJ/mol and -26.4 ± 0.42 kJ/mol
ΔH° (Sgf29 D266N; [5]): -25.9 ± 0.42 kJ/mol
binding (in words) (Sgf29 D266W): abrogated
decrease in enthalpy (Sgf29 D266Y; D266Y relative to WT Sgf29): 13.8 kJ/mol
increase in entropy (Sgf29 D266Y; D266Y relative to WT Sgf29): about 2.1 kcal mol^-1
-TΔS° (Sgf29 D266Y; [6]): -5.86 ± 1.3 kJ/mol
ΔG° (Sgf29 D266Y; [6]): -25.9 ± 0.42 kJ/mol
ΔH° (Sgf29 D266Y; [6]): -20.1 ± 0.84 kJ/mol
decrease in ΔH° (Sgf29 D266F; D266F relative to WT Sgf29): 19.2 kJ/mol
more favorable -TΔS° (difference) (Sgf29 D266F; D266F relative to WT Sgf29): 13 kJ/mol
reduction in binding affinity (Sgf29 D266F; D266F relative to WT Sgf29): 14 fold
-TΔS° (Sgf29 D266F; [7]): -10.5 ± 0.42 kJ/mol
ΔG° (Sgf29 D266F; [7]): -24.7 ± 0.42 kJ/mol
ΔH° (Sgf29 D266F; [7]): -14.2 ± 0.84 kJ/mol
thermodynamic profile (in words) (Sgf29 Y238F; Y238F variants with altered or similar CD spectra, compared to WT Sgf29): indistinguishable thermodynamic profiles
-TΔS° (Sgf29 Y238F; [8]): 2.9 ± 0.42 kJ/mol
ΔG° (Sgf29 Y238F; [8]): -31 ± 0.42 kJ/mol
ΔH° (Sgf29 Y238F; [8]): -33.9 ± 0.42 kJ/mol
reduced binding affinity (Sgf29 Y245F; Y245F relative to WT Sgf29): 4.5 fold
-TΔS° (Sgf29 Y245F; [9]): -2.9 ± 0.42 kJ/mol
ΔG° (Sgf29 Y245F; [9]): -27.6 ± 0.42 kJ/mol
ΔH° (Sgf29 Y245F; [9]): -24.7 ± 0.42 kJ/mol
